Earlier results, collected in Sander's compilation of Henry's law constants.
Where “and” joins values, the source holds several entries; their conditions need not be identical. Identical values can stand only once.

Test: Henry solubility constant Hcp at 298.15 K (mol/(m3 Pa))
Conditions: cited value
[1] = reference: Fogg and Sangster (2003)
[2] = reference: Barcelo and Hennion (1997)
[3] = reference: Burkholder et al. (2015)
[4] = reference: Burkholder et al. (2019)
[5] = reference: Sander et al. (2006)
[6] = reference: Sander et al. (2011)

For `c1ccc2c(c1)ccc1ccccc12` [phenanthrene], the “Henry solubility constant Hcp” value (reference: Brockbank (2013)) is listed as 0.34, the “Henry solubility constant Hcp” value [1] is listed as 0.23 and the “Henry solubility constant Hcp” value (reference: Goldstein (1982)) is listed as 0.093. For the same compound, the “Henry solubility constant Hcp” value (reference: McCarty (1980)) was 0.076.

In the case of `Nc1c(Cl)c(Cl)nc(C(=O)O)c1Cl` [picloram], the “Henry solubility constant Hcp” value [2] is listed as 290.

In the case of `C=CCCCCCC` [1-octene], the “Henry solubility constant Hcp” value (reference: Brockbank (2013)) is listed as 1.6e-05.

In the case of `Cc1ccc(C)c(C)c1C` [1,2,3,4-tetramethylbenzene], the “Henry solubility constant Hcp” value (reference: Brockbank (2013)) is given as 0.0029.

For `Cc1ccccc1` [methylbenzene], the “Henry solubility constant Hcp” value (reference: Brockbank (2013)) is given as 0.0019, the “Henry solubility constant Hcp” value (reference: Goldstein (1982)) is given as 0.0015 and the “Henry solubility constant Hcp” value (reference: McAuliffe (1971)) is given as 0.0015.

For `CC(C)N(C(=O)SCC(Cl)=C(Cl)Cl)C(C)C` [triallate], the “Henry solubility constant Hcp” value [2] is listed as 0.01.

For `c1cc2c3c(cccc3c1)CC2` [acenaphthene], the “Henry solubility constant Hcp” value (reference: Brockbank (2013)) is given as 0.072, the “Henry solubility constant Hcp” value [1] is given as 0.055 and the “Henry solubility constant Hcp” value (reference: Goldstein (1982)) is given as 0.041. For the same compound, the “Henry solubility constant Hcp” value (reference: HSDB (2015)) was 0.064 and the “Henry solubility constant Hcp” value (reference: McCarty (1980)) was 0.052.

For `CCCCOC` [methyl butyl ether], the “Henry solubility constant Hcp” value (reference: Brockbank (2013)) is given as 0.0066.

In the case of `FC(F)(Cl)Cl` [dichlorodifluoromethane], the “Henry solubility constant Hcp” value (reference: Brockbank (2013)) is given as 3.1e-05, the “Henry solubility constant Hcp” value [3] is given as 3e-05 and the “Henry solubility constant Hcp” value [4] is given as 3e-05. For the same compound, the “Henry solubility constant Hcp” value (reference: Goldstein (1982)) was 3.5e-06, the “Henry solubility constant Hcp” value [5] was 3e-05 and the “Henry solubility constant Hcp” value [6] was 3e-05.

In the case of `Cc1ccccc1N` [2-methylbenzenamine], the “Henry solubility constant Hcp” value (reference: Brockbank (2013)) is listed as 4.8.

In the case of `CCOC(=O)CC(SP(=S)(OC)OC)C(=O)OCC` (stereo unspecified) [malathion], the “Henry solubility constant Hcp” value [2] is listed as 4.3 and the “Henry solubility constant Hcp” value (reference: Brockbank (2013)) is listed as 20.

For `Cc1cccc([N+](=O)[O-])c1` [3-nitrotoluene], the “Henry solubility constant Hcp” value (reference: Brockbank (2013)) is given as 0.27 and the “Henry solubility constant Hcp” value (reference: Goldstein (1982)) is given as 0.14.

In the case of `CCCCC(O)(Cn1cncn1)c1ccc(Cl)cc1Cl` (stereo unspecified) [hexaconazole], the “Henry solubility constant Hcp” value [2] is given as 28.

In the case of `C=CCCC` [1-pentene], the “Henry solubility constant Hcp” value (reference: Brockbank (2013)) is given as 3e-05.

In the case of `CCCCOC=O` [butyl methanoate], the “Henry solubility constant Hcp” value (reference: Brockbank (2013)) is given as 0.026.

In the case of `c1ccc2cc3c(cc2c1)-c1cccc2cccc-3c12` [benzo[k]fluoranthene], the “Henry solubility constant Hcp” value (reference: Goldstein (1982)) is given as 0.0096.

For `CN(C)C(=S)SSC(=S)N(C)C` [thiram], the “Henry solubility constant Hcp” value (reference: MacBean (2012b)) is listed as 30.

In the case of `Clc1cccc(Cl)c1Cl` [1,2,3-trichlorobenzene], the “Henry solubility constant Hcp” value (reference: Brockbank (2013)) is listed as 0.0062.

In the case of `CCCCCCO` [1-hexanol], the “Henry solubility constant Hcp” value (reference: Brockbank (2013)) is listed as 0.76.

In the case of `c1ccc(Oc2ccccc2)cc1` [diphenyl ether], the “Henry solubility constant Hcp” value (reference: Brockbank (2013)) is given as 0.019.

For `Clc1ccc(Cl)c(-c2cc(Cl)ccc2Cl)c1` [2,2',5,5'-tetrachlorobiphenyl], the “Henry solubility constant Hcp” value (reference: Murphy et al. (1983b)) is listed as 0.038.

For `CCNc1nc(NC(C)C)nc(SC)n1` [ametryn], the “Henry solubility constant Hcp” value [2] is listed as 82.

In the case of `ClC(Cl)(Cl)Cl` [tetrachloromethane], the “Henry solubility constant Hcp” value (reference: Brockbank (2013)) is given as 0.00035, the “Henry solubility constant Hcp” value [3] is given as 0.00036 and the “Henry solubility constant Hcp” value [4] is given as 0.00036. For the same compound, the “Henry solubility constant Hcp” value (reference: Dilling (1977)) was 0.00046, the “Henry solubility constant Hcp” value (reference: Goldstein (1982)) was 0.00033 and the “Henry solubility constant Hcp” value (reference: Harrison et al. (1993)) was 0.00038 and 0.00021. The “Henry solubility constant Hcp” value (reference: Liss and Slater (1974)) was 0.00037, the “Henry solubility constant Hcp” value [5] was 0.00034 and the “Henry solubility constant Hcp” value [6] was 0.00034.

In the case of `CCCCO[N+](=O)[O-]` [1-butyl nitrate], the “Henry solubility constant Hcp” value [3] is given as 0.01, the “Henry solubility constant Hcp” value [4] is given as 0.01 and the “Henry solubility constant Hcp” value [5] is given as 0.01. For the same compound, the “Henry solubility constant Hcp” value [6] was 0.01.

In the case of `c1ccc2c(c1)-c1cccc3cccc-2c13` [benzo[jk]fluorene], the “Henry solubility constant Hcp” value (reference: Brockbank (2013)) is given as 0.7, the “Henry solubility constant Hcp” value [1] is given as 0.54 and the “Henry solubility constant Hcp” value (reference: Petrasek et al. (1983)) is given as 0.99.

In the case of `CCNc1nc(Cl)nc(NC(C)(C)C#N)n1` [cyanazine], the “Henry solubility constant Hcp” value [2] is given as 33000.

In the case of `Fc1ccccc1` [fluorobenzene], the “Henry solubility constant Hcp” value (reference: Brockbank (2013)) is listed as 0.0015.
